From patent publication US20060194823A1, “Sulfonamido-macrocycles as Tie2 inhibitors and the salts thereof, a pharmaceutical composition comprising these compounds, the method of preparing and the use thereof” (priority 2004, published 2006)

target: T1, Tie-2-Kinase (Homo sapiens, UniProt Q02763); assay: Tie-2-Kinase HTRF-Assay; assay type: biochemical; settings: either in the Tie2 kinase assay or in the Tie2 autophosphorylation ELISA test; read-out: IC50, inhibit Tie2
T1 construct: made in house
Source text: Tie-2 phosphorylates tyrosine residues of the artificial substrate polyGAT (biotinylated polyGluAlaTyr). Detection of phosphorylated product is achieved specifically by a trimeric detection complex consisting of the phosphorylated substrate, streptavidin-XLent (SA-XLent) which binds to biotin, and Europium Cryptate-labeled anti-phosphotyrosine antibody PT66 which binds to phosphorylated tyrosine. Excitation of Europium fluorescence with 337 nm light results in emission of long-lived light with 620 nm. In case a trimeric detection complex has formed, part of the energy will be transferred to the SA-XLent fluorophore that itself then emits long-lived light of 665 nm (FRET: fluorescence resonance energy transfer). […] Measurement is performed in a Packard Discovery or BMG Rubystar instrument. A-counts (emission at 665 nm) will be divided by B-counts (emission at 620 nm) and multiplicated with a factor of 10000. The resulting numbers are called the “well ratio” of the sample.
• Enzyme: Tie-2-Kinase, in house, aliquots (12×10 mL) stored at −80° C. • Substrate: PolyGAT labeled with Biotin (1000 μg/mL); ClS Bio; # 61GATBLB; • aliquots stored at −20° C. • ATP: Amersham Pharmacia Biotech Inc. # 27-2056-01; 100 mM; stored at −20° C. • Antibody: PT66-Eu Cryptate; CIS Bio; # 61T66KLB; 30 μg/mL; aliquots stored at −20° C. • SA-XLent; CIS Bio; # 611SAXLB; 1000 μg/mL; aliquots stored at −80° C. • Microplates: 384 Well black, SV, Greiner, # 784076 Solutions: Assay Buffer: • 50 mM HEPES (pH 7.0), 25 mM MgCl2, 5 mM MnCl2, 1 mM DTT, 0.5 mM Na3VO4, 0.01% (v/v) NP40, 1× Complete EDTA free Enzyme Working Solution: • Tie-2 stock solution is diluted 1:250 in assay buffer Substrate Working Solution: • PolyGAT (1000 μg/mL; 36.23 μM) is diluted 1:90.6 to 400 nM or 77.3 ng/well, ATP (100 mM) is diluted 1:5000 to 20.0 μM. Both dilutions in assay buffer. Final assay concentrations: poly-GAT: 200 nM or 5.25 μg/mL, ATP: 10 μM (1×Km each). • Detection solution: 50 mM HEPES (pH 7.0), BSA 0.2%, 0.6 M KF, 200 mM EDTA, PT66-Europium Cryptate 2.5 ng/well, SA-XLent Cis Bio 90 ng/well. Assay Steps All Steps at 20° C. • 1. 0.75 μL of compound solution in 30% (v/v) DMSO • 2. add 7 μL of substrate working solution • 3. add 7 μL of enzyme working solution • 4. incubate 75 min (reaction volume: 14.75 μL) • 5. add 8 μL of detection solution • 6. incubate 180 min or over night at 4° C. (total volume: 22.75 μL) • 7. measure HTRF in Packard Discovery or BMG Rubystar instrument (delay 50 μs, integrated time 400 μs) Final Concentrations (in 14.75 μL Reaction Volume): • Enzyme: unknown • polyGAT (1×Km): 200 nM (77.3 ng) • ATP (1×Km): 10 μM • DMSO: 1.5% (v/v) • Buffer conditions: 50 mM HEPES (pH 7.0), 25 mM MgCl2, 5 mM MnCl2, 1 mM DTT, 0.5 mM NaVO4, 0.01% (v/v) NP40, 1× Complete Controls: • C0: uninhibited reaction (DMSO only) • Ci: inhibited reaction with 20 μM Staurosporine Biological Experiment 3: Proliferation Test

T1 sequence (Q02763 23-1124): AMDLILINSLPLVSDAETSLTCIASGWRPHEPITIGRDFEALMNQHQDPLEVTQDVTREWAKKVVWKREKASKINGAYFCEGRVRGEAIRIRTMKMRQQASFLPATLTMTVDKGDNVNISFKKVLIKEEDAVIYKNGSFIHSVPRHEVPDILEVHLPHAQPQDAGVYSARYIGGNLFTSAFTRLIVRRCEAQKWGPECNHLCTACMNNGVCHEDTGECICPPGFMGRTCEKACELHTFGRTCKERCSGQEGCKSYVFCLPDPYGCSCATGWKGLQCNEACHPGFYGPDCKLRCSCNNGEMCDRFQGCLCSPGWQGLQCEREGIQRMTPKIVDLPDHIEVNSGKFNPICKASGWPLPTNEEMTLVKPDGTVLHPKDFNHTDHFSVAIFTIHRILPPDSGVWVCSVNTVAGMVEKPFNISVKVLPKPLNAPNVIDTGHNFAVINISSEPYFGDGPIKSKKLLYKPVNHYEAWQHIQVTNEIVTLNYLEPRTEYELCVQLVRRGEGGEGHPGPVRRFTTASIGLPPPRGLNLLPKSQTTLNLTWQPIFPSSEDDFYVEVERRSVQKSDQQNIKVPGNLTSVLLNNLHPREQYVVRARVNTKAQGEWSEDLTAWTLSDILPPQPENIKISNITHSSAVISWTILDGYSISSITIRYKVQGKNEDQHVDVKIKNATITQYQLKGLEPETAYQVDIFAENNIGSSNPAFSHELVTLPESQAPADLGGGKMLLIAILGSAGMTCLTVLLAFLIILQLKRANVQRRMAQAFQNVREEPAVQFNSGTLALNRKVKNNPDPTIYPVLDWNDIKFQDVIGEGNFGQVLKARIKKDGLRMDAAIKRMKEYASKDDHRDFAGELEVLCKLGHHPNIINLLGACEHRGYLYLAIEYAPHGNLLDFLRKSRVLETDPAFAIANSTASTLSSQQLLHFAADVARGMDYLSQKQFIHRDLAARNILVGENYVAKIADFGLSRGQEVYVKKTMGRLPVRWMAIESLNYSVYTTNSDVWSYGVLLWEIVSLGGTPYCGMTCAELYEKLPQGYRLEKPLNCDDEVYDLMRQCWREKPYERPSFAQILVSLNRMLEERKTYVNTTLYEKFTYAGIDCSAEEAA

IC50, ≤ 1000 nM:
O=C(COc1ccc(-c2cnc3nc2NCCCNS(=O)(=O)c2cccc(c2)N3)cc1)c1ccccc1 [Example 3, 2-[4-[4,4-dioxo-4λ^6-thia-2,5,9-triaza-1(2,4)-pyrimidina-3(1,3)-benzenacyclo-nonaphan-1^5-yl]phenoxy]-1-phenylethanone]
O=C(Nc1ccc(-c2cnc3nc2NCCCNS(=O)(=O)c2cccc(c2)N3)cc1)Nc1cccc(C(F)(F)F)c1 [Example 9, N-[4-[4,4-dioxo-4λ^6-thia-2,5,9-triaza-1(2,4)-pyrimidina-3(1,3)-benzena-cyclononaphan-1^5-yl]phenyl]-N′-[3-(trifluoromethyl)-phenyl]urea]
O=C(Nc1ccccc1)Nc1ccc(-c2cnc3nc2NCCCNS(=O)(=O)c2cccc(c2)N3)cc1 [Example 8, N-[4-[4,4-dioxo-4λ^6-thia-2,5,9-triaza-1(2,4)-pyrimidina-3(1,3)-benzena-cyclononaphan-1^5-yl]phenyl]-N′-phenylurea]
O=C(COc1ccc(-c2cnc3nc2NCCCNS(=O)(=O)c2cccc(c2)N3)cc1)c1ccc(F)cc1 [Example 2, 2-[4-[4,4-dioxo-4λ^6-thia-2,5,9-triaza-1(2,4)-pyrimidina-3(1,3)-benzenacyclo-nonaphan-1^5-yl]phenoxy]-1-(4-fluorophenyl)-ethanone]
O=S1(=O)NCCCNc2nc(ncc2-c2ccc3c(c2)OCO3)Nc2cccc1c2 [Example 1, 1^5-(1,3-benzodioxol-5-yl)-4-thia-2,5,9-triaza-1(2,4) pyrimidina-3(1,3)-benzenacyclonona-phane 4,4-dioxide]
O=C(Nc1ccc(-c2cnc3nc2NCCCNS(=O)(=O)c2cccc(c2)N3)cc1)Nc1cc(C(F)(F)F)ccc1F [Example 10, N-[4-[4,4-dioxo-4λ^6-thia-2,5,6-triaza-1(2,4)-pyrimidina-3(1,3)-benzena-cyclononaphan-1^5-yl]phenyl]-N′-[2-fluoro-5-(trifluoromethyl)-phenyl]urea]
COc1ccc(S(=O)(=O)Nc2ccc(-c3cnc4nc3NCCCNS(=O)(=O)c3cccc(c3)N4)cc2)cc1 [Example 23, N-[4-[4,4-dioxo-4λ^6-thia-2,5,9-triaza-1(2,4)-pyrimidina-3(1,3)-benzena-cyclononaphan-1^5-yl]phenyl]-4-methoxybenzene-sulfonamide]
